According to the NIST ThermoML archive (doi:10.1021/je060271a):
± gives the expanded uncertainty stated by the source.

Settings: 283.15 K, Liquid, Vibrating tube method

Measured: mass density

CCCCCC(=O)OCC(COC(=O)CCCCC)(COC(=O)CCCCC)COC(=O)CCCCC [pentaerythritol tetrahexanoate]
1004.4 ± 1.3 kg/m3: 263.5 kPa
1004.2 ± 1.2 kg/m3: 222 kPa | 227.9 kPa | 228.4 kPa | 228.8 kPa | 230 kPa | 231.2 kPa | 232.4 kPa | 233.4 kPa | 238.1 kPa | 238.8 kPa | 240.7 kPa | 249.9 kPa | 252.7 kPa | 256.9 kPa | 261.9 kPa | 262.8 kPa | 264.5 kPa | 265.2 kPa | 267.8 kPa | 274.4 kPa | 275.3 kPa | 278.1 kPa | 280.5 kPa | 281.2 kPa | 284.3 kPa | 287.6 kPa | 288.9 kPa | 291.8 kPa | 296.5 kPa | 297.4 kPa | 299.8 kPa | 306.8 kPa | 314.1 kPa | 318.8 kPa | 328.3 kPa | 331.8 kPa | 373.2 kPa
1004.1 ± 1.2 kg/m3: 221.3 kPa | 223.2 kPa | 234.8 kPa | 245.6 kPa | 249.6 kPa | 298.6 kPa
1004.4 ± 1.2 kg/m3: 223.5 kPa | 230.8 kPa | 237.6 kPa | 242 kPa | 257.8 kPa | 277.6 kPa | 289.6 kPa | 294.1 kPa | 303.3 kPa | 304.3 kPa | 308 kPa | 335.1 kPa | 346.7 kPa | 348.1 kPa | 349.2 kPa | 351.1 kPa | 352.6 kPa | 354.7 kPa | 357.2 kPa | 369.3 kPa | 379.4 kPa | 381.5 kPa
1004.5 ± 1.2 kg/m3: 371.3 kPa
1004.3 ± 1.2 kg/m3: 219.9 kPa | 220.4 kPa | 221.1 kPa | 222.5 kPa | 224.1 kPa | 229.3 kPa | 232.1 kPa | 233.6 kPa | 236 kPa | 239.2 kPa | 239.9 kPa | 241.4 kPa | 242.8 kPa | 243.5 kPa | 243.9 kPa | 244.9 kPa | 246.3 kPa | 247 kPa | 247.7 kPa | 248.6 kPa | 250.5 kPa | 251.5 kPa | 251.9 kPa | 252.2 kPa | 253.4 kPa | 254.6 kPa | 255.2 kPa | 256 kPa | 258.6 kPa | 259.7 kPa | 260.5 kPa | 261.2 kPa | 266.4 kPa | 267 kPa | 269.1 kPa | 269.8 kPa | 270.8 kPa | 271.7 kPa | 272.5 kPa | 273.4 kPa | 276.4 kPa | 279.1 kPa | 282.6 kPa | 283.7 kPa | 285.7 kPa | 286.8 kPa | 290.8 kPa | 292.9 kPa | 295.1 kPa | 300.9 kPa | 301.9 kPa | 305.5 kPa | 309.4 kPa | 310.6 kPa | 311.5 kPa | 313 kPa | 315.6 kPa | 317.2 kPa | 320.5 kPa | 322.2 kPa | 324 kPa | 325.2 kPa | 326.4 kPa | 329.5 kPa | 333.3 kPa | 336.8 kPa | 338.4 kPa | 340.1 kPa | 341.9 kPa | 343.1 kPa | 344.6 kPa | 350.2 kPa | 355.6 kPa | 358.9 kPa | 367.6 kPa | 375.4 kPa | 377.5 kPa
